Assay results as given in patent US11198713B2, “Agents modulating beta-catenin functions and methods thereof” (FOG PHARMACEUTICALS, INC., priority 2017, dated 2021).
Like-named read-outs stand apart in the source and are kept apart here. Bridge positions count the residues as written; N and C are the ends. Square brackets hold non-standard residues; d marks the D form. MG = Monomer G = RdN, acyclic alkyl-N(Alloc) stapling residue; R5 = C=CCCC[C@@](C)(N)C(=O)O

Experiments:
[1] = biological target: T1, full-length beta-catenin (Axin site) (Homo sapiens, UniProt P35222); test: Competition fluorescence polarization assay (Axin site probe); format: binding
T1 construct: 15 nM full-length beta-catenin, 20 nM FITC labeled peptide in buffer
T1 sequence (P35222 1-781): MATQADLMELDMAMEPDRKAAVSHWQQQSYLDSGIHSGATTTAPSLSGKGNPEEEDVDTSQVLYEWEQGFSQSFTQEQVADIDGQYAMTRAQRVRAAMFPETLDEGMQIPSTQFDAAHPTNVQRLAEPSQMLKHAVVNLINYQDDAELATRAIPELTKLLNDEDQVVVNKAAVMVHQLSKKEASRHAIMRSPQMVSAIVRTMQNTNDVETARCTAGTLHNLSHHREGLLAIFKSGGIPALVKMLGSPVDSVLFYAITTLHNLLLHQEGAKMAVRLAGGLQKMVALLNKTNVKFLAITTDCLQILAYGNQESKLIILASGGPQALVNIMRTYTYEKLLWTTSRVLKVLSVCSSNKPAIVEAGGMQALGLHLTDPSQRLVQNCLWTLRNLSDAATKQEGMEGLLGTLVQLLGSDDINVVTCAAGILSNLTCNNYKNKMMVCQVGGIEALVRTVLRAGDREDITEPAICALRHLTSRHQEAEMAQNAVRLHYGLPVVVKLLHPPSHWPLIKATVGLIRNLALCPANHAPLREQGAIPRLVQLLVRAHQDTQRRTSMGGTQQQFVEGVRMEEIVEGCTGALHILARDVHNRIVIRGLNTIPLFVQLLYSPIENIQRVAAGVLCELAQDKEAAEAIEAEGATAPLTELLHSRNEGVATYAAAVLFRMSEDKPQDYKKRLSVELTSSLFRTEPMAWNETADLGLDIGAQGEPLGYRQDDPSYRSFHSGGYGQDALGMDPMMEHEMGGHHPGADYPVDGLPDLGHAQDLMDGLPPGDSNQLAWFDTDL
Summary of the method: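 Competition FP: 15 nM full-length β-catenin pre-incubated 5 min with 20 nM FITC-labelled stapled Axin-site peptide, then titrated peptide added (3-fold series from 5 μM) for 15 min in the dark. Buffer 50 mM Tris pH 8.0, 250 mM NaCl, 2% glycerol, 0.5 mM EDTA; duplicate reads.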

[2] = biological target: T2, biotinylated beta-catenin (Homo sapiens, UniProt P35222); test: Surface Plasmon Resonance (Biacore); format: binding
T2 sequence (P35222 1-781): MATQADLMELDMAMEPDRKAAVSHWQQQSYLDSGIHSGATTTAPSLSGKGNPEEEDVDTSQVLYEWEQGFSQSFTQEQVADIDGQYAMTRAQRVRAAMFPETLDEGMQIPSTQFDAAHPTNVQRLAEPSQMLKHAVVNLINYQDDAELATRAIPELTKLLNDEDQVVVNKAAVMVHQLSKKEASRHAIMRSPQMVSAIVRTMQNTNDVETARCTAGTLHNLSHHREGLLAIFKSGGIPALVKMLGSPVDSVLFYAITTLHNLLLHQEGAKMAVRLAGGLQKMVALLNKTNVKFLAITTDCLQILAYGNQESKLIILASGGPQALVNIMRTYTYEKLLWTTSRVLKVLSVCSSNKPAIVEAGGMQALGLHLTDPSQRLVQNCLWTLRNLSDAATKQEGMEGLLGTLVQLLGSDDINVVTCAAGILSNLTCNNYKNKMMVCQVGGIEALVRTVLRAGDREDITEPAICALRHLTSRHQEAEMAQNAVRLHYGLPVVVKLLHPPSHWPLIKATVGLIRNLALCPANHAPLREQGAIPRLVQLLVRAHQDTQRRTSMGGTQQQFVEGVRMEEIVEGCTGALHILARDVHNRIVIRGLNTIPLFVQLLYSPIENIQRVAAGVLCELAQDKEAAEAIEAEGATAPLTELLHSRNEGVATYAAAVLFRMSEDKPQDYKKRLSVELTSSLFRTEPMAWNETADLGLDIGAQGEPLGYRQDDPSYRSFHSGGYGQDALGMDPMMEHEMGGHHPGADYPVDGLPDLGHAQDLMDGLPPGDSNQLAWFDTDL
Protocol: Additionally or alternatively, binding to beta-catenin may be measured by Surface Plasmon Resonance. In an exemplary assay, approximately 6 nmol dried peptide diluted in buffer (50 mM Tris pH 8.0, 300 mM NaCl, 2% glycerol, 0.5 mM TCEP, 0.5 mM EDTA, 0.005% Tween-20, 1 mg/mL CM Dextran, 0.02% w/v sodium azide) was assayed on a Biacore X100 using the Biacore Biotin CAPture Kit (GE Healthcare) and biotinylated beta-catenin. Results were analyzed using the Biacore X100 Evaluation Software. […] FPO217c (Isomer 2) bound to the armadillo domain of β-catenin with a Kd of 2 nM.

full-length beta-catenin [3] = biological target: T3, full-length beta-catenin (UniProt P35222 2-781, limits assumed); test: competition FP, grade of FP EC50 (++: 100-500 nM)
T3 construct: mature; also called full-length ß-Catenin; β-catenin
T3 sequence (looked up): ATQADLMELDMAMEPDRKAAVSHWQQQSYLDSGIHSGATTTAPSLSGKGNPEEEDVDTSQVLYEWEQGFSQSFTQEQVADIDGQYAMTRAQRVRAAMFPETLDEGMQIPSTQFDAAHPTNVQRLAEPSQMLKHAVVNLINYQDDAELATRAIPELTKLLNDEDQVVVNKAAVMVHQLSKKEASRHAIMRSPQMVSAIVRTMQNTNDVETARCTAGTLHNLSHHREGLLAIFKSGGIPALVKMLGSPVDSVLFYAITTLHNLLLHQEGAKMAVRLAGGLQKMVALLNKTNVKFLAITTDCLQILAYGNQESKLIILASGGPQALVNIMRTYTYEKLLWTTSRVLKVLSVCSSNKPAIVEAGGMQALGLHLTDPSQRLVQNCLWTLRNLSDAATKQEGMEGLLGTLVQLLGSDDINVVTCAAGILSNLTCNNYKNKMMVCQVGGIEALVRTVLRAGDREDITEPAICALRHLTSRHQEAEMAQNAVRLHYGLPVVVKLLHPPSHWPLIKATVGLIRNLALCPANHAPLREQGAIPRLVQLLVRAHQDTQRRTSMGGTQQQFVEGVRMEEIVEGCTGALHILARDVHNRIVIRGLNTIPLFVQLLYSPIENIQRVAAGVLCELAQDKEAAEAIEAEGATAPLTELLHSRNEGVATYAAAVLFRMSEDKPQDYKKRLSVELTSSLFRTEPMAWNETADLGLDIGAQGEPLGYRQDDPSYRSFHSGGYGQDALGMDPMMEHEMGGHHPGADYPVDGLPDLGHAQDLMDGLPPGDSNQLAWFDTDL
Protocol: (§1) In some embodiments, a competition fluorescence polarization assay is used to assess binding of provided compounds to beta-catenin. In an exemplary procedure, solutions of provided compounds, e.g., provided stapled peptides, were prepared in a buffer (e.g., 50 mM Tris pH 8.0, 250 mM NaCl, 2% glycerol, 0.5 mM EDTA, 0.02% w/v sodium azide) using a 3-fold serial dilution from 5 µM. Probe solution (15 nM full-length ß-Catenin, 20 nM FITC labeled peptide in buffer) was prepared and incubated for a period of time, e.g., 5 minutes, and the a volume, e.g., 40 µL per well plated in suitable plate, e.g., a black polystyrene 384-well plate (Corning). Equal volume of the serial diluted peptide was added to the plate and incubated protected from light for 15 minutes prior to read. Reads were performed on a Spectramax M5 (Molecular Devices) in duplicate. Suitable probe was FITC-PEG1-PQ-S5-ILD-S5-HVRRVWR (SEQ ID NO: 1) (hydrocarbon staple formed by two S5 via olefin metathesis) and/or FITC-bA-PQ-S5-ILD-S5-HVRRVWR (SEQ ID NO: 3) (hydrocarbon staple formed by two S5 via olefin metathesis). […] Another peptide, FPO217c (Ac-AR_8ILDAHIM$B5$RVW (SEQ ID NO: 280), with N-terminal proline removed and valine replaced with isoleucine compared to FP0025c) was prepared.

full-length beta-catenin [4] = biological target: T3, full-length beta-catenin; test: competition FP
Protocol: as §1

[5] = competition fluorescence polarization, Table 2, read-out: in vitro FP EC50
[6] = Biacore, biotinylated beta-catenin, read-out: Kd

Molecule	EC50 [1, 5] [nM]	Kd [2, 6] [nM]	further results
CC[C@H](C)[C@@H]1NC(=O)[C@](C)(NC(=O)[C@H](CCC(N)=O)NC(=O)[C@@H]2CCCN2C(C)=O)CCCC=CCOC(=O)N2CC[C@](C(=O)N[C@@H](Cc3c[nH]cn3)C(=O)N[C@H](C(=O)N[C@@H](CCCNC(=N)N)C(=O)N[C@@H](CCCNC(=N)N)C(=O)N[C@H](C(=O)N[C@@H](Cc3c[nH]c4ccccc34)C(=O)N[C@@H](CCCNC(=N)N)C(N)=O)C(C)C)C(C)C)(C2)NC(=O)[C@H](CC(=O)O)NC(=O)[C@H](CC(C)C)NC1=O (single isomer, unassigned) [FP0766c, Ac-P-Q-R5-I-L-D-MC-H-V-R-R-V-W-R-NH2]	< 100	–	Kd ([2]; Table 2, read-out: Kd by SPR): 7 nM
CC[C@H](C)[C@@H]1NC(=O)[C@](C)(NC(=O)[C@H](CCC(N)=O)NC(=O)[C@@H]2CCCN2C(C)=O)CCCC=CCOC(=O)N2CC[C@](C(=O)N[C@@H](Cc3c[nH]cn3)C(=O)N[C@H](C(=O)N[C@@H](CCCNC(=N)N)C(=O)N[C@@H](CCCNC(=N)N)C(=O)N[C@H](C(=O)N[C@@H](Cc3c[nH]c4ccccc34)C(=O)N[C@@H](CCCNC(=N)N)C(N)=O)C(C)C)C(C)C)(C2)NC(=O)[C@H](CC(=O)O)NC(=O)[C@H](CC(C)C)NC1=O (single isomer, unassigned) [FP-0766c, Ac-P-Q-R5-I-L-D-PR-H-V-R-R-V-W-R-NH2]	–	~7	–
CC[C@H](C)[C@@H]1NC(=O)[C@](C)(NC(=O)[C@H](C)NC(=O)[C@@H]2CCCN2C(C)=O)CCCCCCC=CCOC(=O)N2CC[C@@](C(=O)N[C@@H](CCCNC(=N)N)C(=O)N[C@H](C(=O)N[C@@H](Cc3c[nH]c4ccccc34)C(N)=O)C(C)C)(C2)NC(=O)[C@H](C(C)C)NC(=O)[C@H](Cc2c[nH]cn2)NC(=O)[C@H](C)NC(=O)[C@H](CC(=O)O)NC(=O)[C@H](CC(C)C)NC1=O [FP0025c, Ac-P-A-R8-I-L-D-A-H-V-MB-R-V-W-NH2]	< 100	15	EC50 ([1]; competition with FITC labeled Axin-site probe, 15 nM full-length beta-catenin, read-out: FP EC50): < 100 nM
CC[C@H](C)[C@@H]1NC(=O)[C@@](C)(NC(=O)[C@H](CCC(N)=O)NC(=O)[C@@H]2CCCN2C(C)=O)CCCC=CCCC[C@@](C)(C(=O)N[C@@H](Cc2c[nH]cn2)C(=O)N[C@H](C(=O)N[C@@H](CCCNC(=N)N)C(=O)N[C@@H](CCCNC(=N)N)C(=O)N[C@H](C(=O)N[C@@H](Cc2c[nH]c3ccccc23)C(=O)N[C@@H](CCCNC(=N)N)C(N)=O)C(C)C)C(C)C)NC(=O)[C@H](CC(=O)O)NC(=O)[C@H](CC(C)C)NC1=O (single isomer, unassigned) [FP-0787c]	–	~14	–
Ac-PQ[MG]ILD[R5]HVRRVWR-NH2 (staple 3-7; also: carbamate staple (-N(R')-C(O)-O-) by ring-closing olefin metathesis) [FP0782c]	–	–	FP EC50 (full-length beta-catenin [3]): 100 to 500 nM; EC50 (full-length beta-catenin [4]): 380 nM
